Measured values: ChEMBL document CHEMBL5346877, “A-ring-fused pyrazoles of dihydrotestosterone targeting prostate cancer cells via the downregulation of the androgen receptor” (Eur J Med Chem, 2023)
Calls of active or inactive are those of the source. The calls are words filed in the database; no cut-off is given here.

Columns and labels:
CWR22R = experiment: Cytotoxicity against human 22Rv1 cells assessed as cell viability at 20 uM incubated for 72 hrs by resazurin dye based microplate reader assay; assay type: functional; conditions: read-out: Activity
DU-145 = experiment: Cytotoxicity against human DU-145 cells assessed as cell viability at 20 uM incubated for 72 hrs by resazurin dye based microplate reader assay; assay type: functional; conditions: read-out: Activity
LAPC4 [1] = experiment: Inhibition of colony formation in human LAPC4 cells at 10 uM incubated for 10 days by crystal violet staining based assay; assay type: functional; conditions: LAPC4, 240 h, time 10 day
LAPC4 [2] = experiment: Cytotoxicity against human LAPC4 cells assessed as cell viability at 20 uM incubated for 72 hrs by resazurin dye based microplate reader assay; assay type: functional; conditions: read-out: Activity
LAPC4 [3] = experiment: Inhibition of colony formation in human LAPC4 cells at 5 uM incubated for 10 days by crystal violet staining based assay; assay type: functional, cell-based; conditions: time 10.0 day
[4] = Downregulation of AR protein expression in human LAPC4 cells assessed as AR levels at 10 uM incubated for 24 hrs by immunoblotting analysis; assay type: functional

Row | SMILES | viability at 20 µM (CWR22R) [%] | viability at 20 µM (DU-145) [%] | inhibition at 10 µM (LAPC4 [1]) [%] | viability at 20 µM (LAPC4 [2]) [%] | inhibition (LAPC4 [3]) | Activity [4]
1 | Cc1c2c(nn1-c1ccc(C#N)cc1)C[C@@H]1CC[C@@H]3[C@H](CC[C@]4(C)[C@@H](O)CC[C@@H]34)[C@@]1(C)C2 | 43 | 50 | 6 | 73 | Active | 
2 | C[C@]12Cc3cnn(-c4ccc(F)cc4)c3C[C@@H]1CC[C@@H]1[C@@H]2CC[C@]2(C)[C@@H](O)CC[C@@H]12 | 57 | 55 | 1 | 44 |  | >=100%
3 | Cc1c2c(nn1-c1ccc(Br)cc1)C[C@@H]1CC[C@@H]3[C@H](CC[C@]4(C)[C@@H](O)CC[C@@H]34)[C@@]1(C)C2 | 50 | 89 | 5 | 52 | Active | 
4 | Cn1nc2c(c1-c1cccs1)C[C@@]1(C)[C@@H](CC[C@@H]3[C@@H]1CC[C@]1(C)C(=O)CC[C@@H]31)C2 | 68 | 100 | 4 | 31 | Active | 92%
5 | CNC(=O)c1ccc(N2C(=S)N(c3ccc(C#N)c(C(F)(F)F)c3)C(=O)C2(C)C)cc1F [ENZALUTAMIDE] | ≥ 100 | 96 | 44 | 81 |  | 85%
6 | Cc1ccc(-c2c3c(nn2C)C[C@@H]2CC[C@@H]4[C@H](CC[C@]5(C)C(=O)CC[C@@H]45)[C@@]2(C)C3)cc1 | 73 | ≥ 100 | 23 | 34 | Active | 92%
7 | C[C@]12CC[C@H](O)CC1=CC[C@@H]1[C@@H]2CC[C@]2(C)C(n3cnc4ccccc43)=CC[C@@H]12 [GALETERONE] | 95 | ≥ 100 | 30 | ≥ 76 |  | 81%
8 | Cn1nc2c(c1-c1ccccc1)C[C@@]1(C)[C@@H](CC[C@@H]3[C@@H]1CC[C@]1(C)[C@@H](O)CC[C@@H]31)C2 | 48 | 100 | 2 | 51 | Active | 93%
9 | COc1ccc(-n2ncc3c2C[C@@H]2CC[C@@H]4[C@H](CC[C@]5(C)[C@@H](O)CC[C@@H]45)[C@@]2(C)C3)cc1 | 75 | 97 | 0 | 43 |  | >=100%
10 | Cn1nc2c(c1-c1ccc(Cl)cc1)C[C@@]1(C)[C@@H](CC[C@@H]3[C@@H]1CC[C@]1(C)[C@@H](O)CC[C@@H]31)C2 | 29 | 90 | 26 | 41 | Active | 91%
11 | Cn1nc2c(c1-c1ccco1)C[C@@]1(C)[C@@H](CC[C@@H]3[C@@H]1CC[C@]1(C)C(=O)CC[C@@H]31)C2 | 43 | 100 | 5 | 39 | Active | 97%
12 | N#Cc1ccc(O[C@H]2CC[C@H](NC(=O)c3ccc(N4CCC(CN5CCN(c6cc7c(cc6F)C(=O)N(C6CCC(=O)NC6=O)C7=O)CC5)CC4)nn3)CC2)cc1Cl (stereo not given in full) [BAVDEGALUTAMIDE] | 96 | 85 | 7 | 5 |  | 14%
13 | Cc1c2c(nn1-c1ccc(F)cc1)C[C@@H]1CC[C@@H]3[C@H](CC[C@]4(C)C(=O)CC[C@@H]34)[C@@]1(C)C2 | 75 | ≥ 100 | 15 | 42 | Active | 
14 | Cc1ccc(-n2nc3c(c2C)C[C@@]2(C)[C@@H](CC[C@@H]4[C@@H]2CC[C@]2(C)[C@@H](O)CC[C@@H]42)C3)cc1 | 37 | 93 | 2 | 88 | Active | 
15 | Cc1ccc(-n2nc3c(c2C)C[C@@]2(C)[C@@H](CC[C@@H]4[C@@H]2CC[C@]2(C)C(=O)CC[C@@H]42)C3)cc1 | 97 | ≥ 100 | 54 | 87 | Active | 
16 | C[C@]12Cc3cnn(-c4ccc(Br)cc4)c3C[C@@H]1CC[C@@H]1[C@@H]2CC[C@]2(C)[C@@H](O)CC[C@@H]12 | 62 | 100 | 1 | 58 |  | >=100%

Row | SMILES | viability at 20 µM (CWR22R) [%] | viability at 20 µM (DU-145) [%] | inhibition at 10 µM (LAPC4 [1]) [%] | viability at 20 µM (LAPC4 [2]) [%] | inhibition (LAPC4 [3]) | Activity [4]
17 | C[C@]12Cc3cnn(-c4ccc([N+](=O)[O-])cc4)c3C[C@@H]1CC[C@@H]1[C@@H]2CC[C@]2(C)[C@@H](O)CC[C@@H]12 | 97 | 99 | 15 | 40 |  | >=100%
18 | COc1ccc(-n2nc3c(c2C)C[C@@]2(C)[C@@H](CC[C@@H]4[C@@H]2CC[C@]2(C)[C@@H](O)CC[C@@H]42)C3)cc1 | 54 | 29 | 7 | 82 | Active | 
19 | Cc1c2c(nn1-c1ccccc1)C[C@@H]1CC[C@@H]3[C@H](CC[C@]4(C)C(=O)CC[C@@H]34)[C@@]1(C)C2 | 90 | 100 | 54 | 87 | Active | 
20 | COc1ccc(-c2c3c(nn2C)C[C@@H]2CC[C@@H]4[C@H](CC[C@]5(C)[C@@H](O)CC[C@@H]45)[C@@]2(C)C3)cc1 | 33 | ≥ 100 | 5 | 51 | Active | 85%
21 | Cc1c2c(nn1-c1ccc([N+](=O)[O-])cc1)C[C@@H]1CC[C@@H]3[C@H](CC[C@]4(C)C(=O)CC[C@@H]34)[C@@]1(C)C2 | 57 | ≥ 100 | 26 | 48 | Active | 
22 | C[C@]12Cc3c(nn(-c4ccccc4)c3-c3ccccc3)C[C@@H]1CC[C@@H]1[C@@H]2CC[C@]2(C)[C@@H](O)CC[C@@H]12 | 47 | 12 | ≥ 100 | 72 |  | >=100%
23 | C[C@]12CC[C@H](O)CC1=CC[C@@H]1[C@@H]2CC[C@]2(C)C(c3cccnc3)=CC[C@@H]12 [ABIRATERONE] | ≥ 100 | ≥ 100 | 70 | 100 |  | 88%
24 | Cn1nc2c(c1-c1ccc(F)cc1)C[C@@]1(C)[C@@H](CC[C@@H]3[C@@H]1CC[C@]1(C)C(=O)CC[C@@H]31)C2 | 57 | 90 | 17 | 29 | Active | 100%
25 | C[C@]12Cc3cnn(-c4ccc(C#N)cc4)c3C[C@@H]1CC[C@@H]1[C@@H]2CC[C@]2(C)[C@@H](O)CC[C@@H]12 | 65 | 88 | 12 | 65 |  | >=100%
26 | Cc1c2c(nn1-c1ccc(Br)cc1)C[C@@H]1CC[C@@H]3[C@H](CC[C@]4(C)C(=O)CC[C@@H]34)[C@@]1(C)C2 |  |  |  |  | Active | 
27 | Cn1nc2c(c1-c1ccc(Br)cc1)C[C@@]1(C)[C@@H](CC[C@@H]3[C@@H]1CC[C@]1(C)[C@@H](O)CC[C@@H]31)C2 | 21 | 94 | 16 | 42 | Active | 79%
28 | Cc1ccc(-c2c3c(nn2C)C[C@@H]2CC[C@@H]4[C@H](CC[C@]5(C)[C@@H](O)CC[C@@H]45)[C@@]2(C)C3)cc1 | 36 | 98 | 28 | 52 | Active | 96%
29 | Cc1c2c(nn1-c1ccc(Cl)cc1)C[C@@H]1CC[C@@H]3[C@H](CC[C@]4(C)[C@@H](O)CC[C@@H]34)[C@@]1(C)C2 | 52 | 107 | 4 | 47 | Active | 
30 | COc1ccc(-n2nc3c(c2C)C[C@@]2(C)[C@@H](CC[C@@H]4[C@@H]2CC[C@]2(C)C(=O)CC[C@@H]42)C3)cc1 | 77 | ≥ 100 | 20 | 57 | Active | 
31 | Cc1c2c(nn1-c1ccc(Cl)cc1)C[C@@H]1CC[C@@H]3[C@H](CC[C@]4(C)C(=O)CC[C@@H]34)[C@@]1(C)C2 | 75 | ≥ 100 | 16 | 38 | Active | 
32 | Cc1c2c(nn1-c1ccc([N+](=O)[O-])cc1)C[C@@H]1CC[C@@H]3[C@H](CC[C@]4(C)[C@@H](O)CC[C@@H]34)[C@@]1(C)C2 | 58 | 85 | 11 | 74 | Active | 
